Legend:
Format in all cases: in vivo
[1] = tested on: pulmonary fibrosis induced by administration of Bleomycin (BLM); assay: Histological examination (H&E and Masson-trichrome staining, Image J) of lung tissue in pulmonary fibrosis-induced animals; conditions: BLM-treated C57BL/6 mice; oral, every day; SFN 50 μg/kg, Met 25 mg/kg, singly or together; lung tissue at 28 days; vs BLM alone
Experimental: In detail, C57BL/6 mice were administered with combination of BLM, SFN and metformin (Met) which is one of BG agents, and control groups and experimental groups were prepared: a control group that was orally administered with sterile physiological saline (SA) and orally administered with distilled water; an experimental group (BLM) that was administered with BLM and orally administered with distilled water; an experimental group (BLM+SFN) that was administered with BLM and orally administered with 50 μg/kg of SFN; an experimental group (BLM+MET) that was administered with BLM and orally administered with […] of Met; and an experimental group (BLM+SFN+MET) that was administered with BLM and orally administered with 50 μg/kg of SFN and 25 mg/kg of Met. […] The fixed lung tissues were stained by the H&E staining method and the Masson-trichrome staining method, and the stained lung tissues were evaluated by Image J assay to assess and compare lung damage and lung fibrosis (FIGS. 1a to 1c).

[2] = tested on: TGF-β1 (transforming growth factor β1); assay: Western blot analysis for TGF-β1 in lung tissue and serum samples; conditions: BLM-treated C57BL/6 mice; oral, every day; SFN 50 μg/kg, Met 25 mg/kg, singly or together; lung tissue and serum at 28 days; vs BLM alone
Experimental: (§1) In detail, C57BL/6 mice were administered with combination of BLM, SFN and metformin (Met) which is one of BG agents, and control groups and experimental groups were prepared: a control group that was orally administered with sterile physiological saline (SA) and orally administered with distilled water; an experimental group (BLM) that was administered with BLM and orally administered with distilled water; an experimental group (BLM+SFN) that was administered with BLM and orally administered with 50 μg/kg of SFN; an experimental group (BLM+MET) that was administered with BLM and orally administered with 25 mg/hg of Met; and an experimental group (BLM+SFN+MET) that was administered with BLM and orally administered with 50 μg/kg of SFN and 25 mg/kg of Met. At this time, C57BL/6 mice were administered with 2.5 unit of BLM by intratracheal injection under anesthesia at the experiment initiation day and 14 days, and the mice were administered with SFN and Met every day during the experimental period from the next day after the first administration of BLM, and the mice of the control group and experimental groups were raised for 28 days after the experiment initiation day.
The animal models of the control group and the experimental groups that were prepared in Example 1 and raised for 28 days were sacrificed. The lung tissues and serum samples were obtained from these animal models. […]

fibronectin = assay: Western blot analysis for fibronectin in lung tissue and serum samples; conditions: BLM-treated C57BL/6 mice; oral, every day; SFN 50 μg/kg, Met 25 mg/kg, singly or together; lung tissue and serum at 28 days; vs BLM alone
Experimental: as §1
(§2) The lung tissues and serum samples were obtained from these animal models. […]

[3] = tested on: AGE (advanced glycation end products); assay: Western blot analysis, Ponceau staining and ELISA for AGE in lung tissue and serum samples; conditions: BLM-treated C57BL/6 mice; oral, every day; SFN 50 μg/kg, Met 25 mg/kg, singly or together; lung tissue and serum at 28 days; vs BLM alone
Experimental: as §1, §2

CN(C)C(=N)N=C(N)N [Met, metformin]
level of fibrous tissue (damaged fibrous regions, H&E and Masson-trichrome staining) [1]: slightly reduced | TGF-β1 levels (Western blot) [2]: reduced TGF-β1 levels | fibronectin levels (Western blot) (fibronectin): reduced fibronectin levels | AGE level (Western blot, ELISA) [3]: slightly reduced AGE level

C[S+]([O-])CCCCN=C=S (centres unmarked) [SFN, sulforaphane]
level of fibrous tissue (damaged fibrous regions, H&E and Masson-trichrome staining) [1]: statistically significant reduction | TGF-β1 levels (Western blot) [2]: reduced TGF-β1 levels | fibronectin levels (Western blot) (fibronectin): reduced fibronectin levels | AGE level (Western blot, ELISA) [3]: reduced

From patent publication US9943497B2, “Pharmaceutical composition for preventing or treating pulmonary fibrosis” (GACHON UNIVERSITY OF INDUSTRY-ACADEMIC COOPERATION …, priority 2013, dated 2018)
